Laboratory results: ChEMBL document CHEMBL3046414, “Synthesis, anticancer, anti-HIV-1, and antimicrobial activity of some tricyclic triazino and triazolo[4,3-e]purine derivatives” (Med Chem Res, 2012)

Assays:
Format in all cases: functional
Salmonella typhi = assay: Antimicrobial activity against Salmonella enterica subsp. enterica serovar Typhi ATCC 13311 after 24 hr by agar cup diffusion technique
Bacillus spizizenii [1] = assay: Antimicrobial activity against Bacillus subtilis subsp. spizizenii ATCC 6633 after 24 hr by agar cup diffusion technique
Staphylococcus aureus = assay: Antimicrobial activity against Staphylococcus aureus NCTC 4163 after 24 hr by agar cup diffusion technique
Aspergillus terreus = assay: Antimicrobial activity against Aspergillus terreus after 48 hr by agar cup diffusion technique
Candida albicans = assay: Antimicrobial activity against Candida albicans NCTC 2708 after 48 hr by agar cup diffusion technique
Saccharomyces cerevisiae = assay: Antimicrobial activity against Saccharomyces cerevisiae ATCC 9763 after 48 hr by agar cup diffusion technique
Proteus vulgaris [2] = assay: Antimicrobial activity against Proteus vulgaris ATCC 49132 after 24 hr by two-fold serial dilution method; conditions: ATCC 49132, 24 h
Escherichia coli [3] = assay: Antimicrobial activity against Escherichia coli 5933 after 24 hr by two-fold serial dilution method; conditions: Escherichia coli, 5933, 24 h
Pseudomonas aeruginosa [4] = assay: Antimicrobial activity against Pseudomonas aeruginosa ATCC 9027 after 24 hr by two-fold serial dilution method; conditions: ATCC 9027, 24 h
Bacillus spizizenii [5] = assay: Antimicrobial activity against Bacillus subtilis subsp. spizizenii ATCC 6633 after 24 hr by two-fold serial dilution method; conditions: ATCC 6633, 24 h
Proteus vulgaris [6] = assay: Antimicrobial activity against Proteus vulgaris ATCC 49132 after 24 hr by agar cup diffusion technique
Escherichia coli [7] = assay: Antimicrobial activity against Escherichia coli 5933 after 24 hr by agar cup diffusion technique
Pseudomonas aeruginosa [8] = assay: Antimicrobial activity against Pseudomonas aeruginosa ATCC 9027 after 24 hr by agar cup diffusion technique
SF-268 = assay: Anticancer activity against Homo sapiens (human) SF268 cells assessed as cell growth at 100 uM after 48 hr by Alamar blue assay; conditions: SF-268, 48 h, read-out: Activity
Malme-3M = assay: Cytotoxicity against Homo sapiens (human) MALME-3M cells after 48 hr by SRB assay
MCF7 = assay: Anticancer activity against Homo sapiens (human) MCF7 cells assessed as cell growth at 100 uM after 48 hr by Alamar blue assay; conditions: MCF7, 48 h, read-out: Activity
NCI-H460 = assay: Anticancer activity against Homo sapiens (human) NCI-H460 cells assessed as cell growth at 100 uM after 48 hr by Alamar blue assay; conditions: NCI-H460, 48 h, read-out: Activity
[9] = Cytotoxicity against Homo sapiens (human) Breast cancer cell after 48 hr by SRB assay; conditions: Cancer cell lines
[10] = Cytotoxicity against Homo sapiens (human) Prostate cancer cell after 48 hr by SRB assay; conditions: Cancer cell lines
[11] = Cytotoxicity against Homo sapiens (human) Ovarian cancer cell after 48 hr by SRB assay; conditions: Cancer cell lines
[12] = Cytotoxicity against Homo sapiens (human) Renal cancer cell after 48 hr by SRB assay; conditions: Cancer cell lines
[13] = Cytotoxicity against Homo sapiens (human) CNS cancer cell after 48 hr by SRB assay; conditions: Cancer cell lines
[14] = Cytotoxicity against Homo sapiens (human) Melanoma cell after 48 hr by SRB assay
[15] = Cytotoxicity against Homo sapiens (human) Colon cancer cell after 48 hr by SRB assay; conditions: Cancer cell lines
[16] = Cytotoxicity against Homo sapiens (human) Leukemia cell after 48 hr by SRB assay
[17] = Cytotoxicity against Homo sapiens (human) NSCLC cell after 48 hr by SRB assay
Aspergillus niger = assay: Antimicrobial activity against Aspergillus niger ATCC 16404 after 48 hr by agar cup diffusion technique
CCRF-CEM = assay: Cytotoxicity against Homo sapiens (human) CCRF-CEM cells after 48 hr by SRB assay
CAKI-1 = assay: Cytotoxicity against Homo sapiens (human) CAKI-1 cells after 48 hr by SRB assay; conditions: CAKI-1, 48 h
UO-31 = assay: Cytotoxicity against Homo sapiens (human) UO31 cells after 48 hr by SRB assay; conditions: UO-31, 48 h
A498 = assay: Cytotoxicity against Homo sapiens (human) A498 cells after 48 hr by SRB assay; conditions: A498, 48 h
T47D = assay: Cytotoxicity against Homo sapiens (human) T47D cells after 48 hr by SRB assay
ACHN = assay: Cytotoxicity against Homo sapiens (human) ACHN cells after 48 hr by SRB assay
HOP-92 = assay: Cytotoxicity against Homo sapiens (human) HOP92 cells after 48 hr by SRB assay; conditions: HOP-92, 48 h
NCI-H226 = assay: Cytotoxicity against Homo sapiens (human) NCI-H226 cells after 48 hr by SRB assay; conditions: NCI-H226, 48 h
SK-MEL-5 = assay: Cytotoxicity against Homo sapiens (human) SK-MEL-5 cells after 48 hr by SRB assay; conditions: SK-MEL-5, 48 h

COc1ccc(-c2nnc3n(C)c4c(=O)n(C)c(=O)n(C)c4n23)cc1
inhibition zone (IZ) (Salmonella typhi): 17 mm | inhibition zone (IZ) (Bacillus spizizenii [1]): 20 mm | inhibition zone (IZ) (Staphylococcus aureus): 14 mm | inhibition zone (IZ) (Aspergillus terreus): 16 mm | inhibition zone (IZ) (Candida albicans): 18 mm | inhibition zone (IZ) (Saccharomyces cerevisiae): 16 mm | MIC (Proteus vulgaris [2]): < 50 µg/mL | MIC (Escherichia coli [3]): < 200 µg/mL | MIC (Pseudomonas aeruginosa [4]): < 200 µg/mL | MIC (Bacillus spizizenii [5]): < 200 µg/mL | inhibition zone (IZ) (Proteus vulgaris [6]): 28 mm | inhibition zone (IZ) (Escherichia coli [7]): 20 mm | inhibition zone (IZ) (Pseudomonas aeruginosa [8]): 21 mm

Cn1c(=O)c2nc3[nH]nc(C#N)c(=N)n3c2n(C)c1=O
growth at 100 µM (SF-268): 47% | GI50 (Malme-3M): 25.2 µM | growth at 100 µM (MCF7): 14% | growth at 100 µM (NCI-H460): 62% | inhibition zone (IZ) (Salmonella typhi): 12 mm | inhibition zone (IZ) (Bacillus spizizenii [1]): 14 mm | GI50 [9]: 91.6 µM | TGI [9]: 100 µM | GI50 [10]: 86.3 µM | TGI [10]: 100 µM | GI50 [11]: 97.9 µM | TGI [11]: 100 µM | GI50 [12]: 72.2 µM | TGI [12]: 100 µM | GI50 [13]: 98 µM | TGI [13]: 100 µM | GI50 [14]: 81.6 µM | TGI [14]: 96.9 µM | GI50 [15]: 100 µM | TGI [15]: 100 µM | GI50 [16]: 94.6 µM | TGI [16]: 100 µM | GI50 [17]: 87.3 µM | TGI [17]: 100 µM | inhibition zone (IZ) (Aspergillus niger): 12 mm | inhibition zone (IZ) (Candida albicans): 12 mm | inhibition zone (IZ) (Saccharomyces cerevisiae): 14 mm | inhibition zone (IZ) (Proteus vulgaris [6]): 19 mm | inhibition zone (IZ) (Escherichia coli [7]): 14 mm | inhibition zone (IZ) (Pseudomonas aeruginosa [8]): 18 mm | GI50 (CCRF-CEM): 67.8 µM | GI50 (CAKI-1): 51.7 µM | GI50 (UO-31): 50.6 µM | GI50 (A498): 51.4 µM | GI50 (T47D): 32.9 µM | GI50 (ACHN): 44.3 µM | GI50 (HOP-92): 31.8 µM | GI50 (NCI-H226): 54 µM | GI50 (SK-MEL-5): 45.9 µM
